Key:
[1] = perhydrolytic degradation in the presence of sodium perborate (10 equiv.), followed by HPLC; assay type: physicochemical; conditions: sodium perborate/persalts 10 equiv.
Method: (§1) To study the hydrolytic degradation, 1 and 2 were dissolved in Tris buffer (pH 8.0, 0.1 M):acetonitrile (can) mixture (3:1, v/v) at 50 μg/mL. The perhydrolytic degradation was evaluated at similar conditions in the presence of sodium perborate (10 equiv.). Commercially available bleach activator, tetraacetylethylenediamine (TAED), was used as a control. The mixture was incubated at room temperature (20° C.) for 20 days. At different time intervals, an aliquot of the solution was taken out and analyzed by HPLC. The concentration of 1 and 2 was quantified by UV-vis absorption at Δmax=218 nm through standard curve. For the bleaching test, 1, 2, TAED, and other control molecules (20 mg) were treated with commercially available food dyes (100× dilution, 1 mL) and hydrogen peroxide (H2O2, 30%, 1 mL). The mixtures were incubated at room temperature (20° C.) and checked at different time intervals to monitor the bleaching of the dyes.

[2] = hydrolytic degradation in buffer, followed by HPLC; assay type: physicochemical; conditions: pH 9.0
[3] = bleaching test with food dye and hydrogen peroxide; conditions: FIG. 2; for bleaching activation effect: food dye (blue) with H2O2, room temperature; for time after which the blue color was bleached: food dye in Tris buffer pH 8.0 with H2O2 (30%) 1:1, 10 mg compound per mL
Method: as §1
The compounds of the invention were subjected to a bleaching test. The food dye was purchased from Adams Extract, and diluted 500 times with Tris buffer (pH 8.0, 0.1 M) before use. The diluted food dye was mixed with H2O2 (30%) in 1:1 ratio (v/v). For every 10 mg of TAED/TA(Me)ED/TriA(Me)ED, 1 mL of food dye/H2O2 mixture was added. The widely used bleach activator TAED actively reacted with H2O2, and the blue color disappeared after about 24 hours.

[4] = hydrolytic degradation in buffer, followed by HPLC; assay type: physicochemical; conditions: for kH (hydrolysis rate constant) / half-life at 50 μg/mL: Tris buffer pH 8.0 (0.1 M):acetonitrile 3:1, 50 μg/mL, 20° C.; for half-life at 50 μg/mL: Tris buffer:acetonitrile (3:1, v/v), read-out: t1/2,H (hydrolysis half-life) (converted); for half-life relative to half-life of TAED: pH 8.0; for hydrolytic degradation compared with TAED: pH 8.0, FIG. 1A
Method: as §1

[5] = solubility in aqueous environment; assay type: physicochemical; conditions: without organic solvent

Row | Compound | perhydrolysis rate, comparison among TAED, 1 and 2 [1] | half-life relative to half-life of TAED [2] | bleaching activation effect [3] | time after which the blue color was bleached [3] | kH (hydrolysis rate constant) [4] | half-life at 50 μg/mL [4] | hydrolysis compared to TAED ([4]; basic pH) | half-life relative to half-life of TAED [4] | hydrolytic degradation compared with TAED [4] | hydrolysis compared to TAED ([4]; pH values between about 5 and 9) | solubility in water [5]
1 | CC(=O)NC(C)CN(C(C)=O)C(C)=O (stereo not drawn) [Compound 2, N-(2-acetamidopropyl)-N-acetylacetamide] | comparable | 5.8 times longer | much slower bleaching action | 24 h | 0.0015 h⁻¹ | 462 h | even slower hydrolysis | 5.7 times longer | slower degradation | – | –
2 | CC(=O)NCCNC(C)=O [DAED, diacetylethylenediamine, reference compound] | – | – | did not exhibit any bleaching activation effect | – | – | – | – | – | – | – | –
3 | CC(=O)N(CC(C)N(C(C)=O)C(C)=O)C(C)=O (stereo not drawn) [Compound 1, N,N′-(propane-1,2-diyl)bis(N-acetylacetamide)] | comparable | 2.6 times longer | – | 24 h | 0.0038 h⁻¹ | 181 h | – | 1.5 times longer | slower degradation | slower hydrolysis | –
4 | CC(=O)N(CCN(C(C)=O)C(C)=O)C(C)=O [TAED, tetraacetylethylenediamine, reference compound] | comparable | – | – | about 24 hours | 0.0091 h⁻¹ | 76 h | – | – | – | – | cannot be easily solubilized in water
5 | CC(=O)NCC(C)NC(C)=O (stereo not drawn) [Compound 3, N,N′-(propane-1,2-diyl)diacetamide, reference compound] | – | – | did not exhibit any bleaching activation effect | – | – | – | – | – | – | – | –

Source: patent US11525106B2, “Tetraacetyldiamine and triacetyldiamine derivatives useful as bleach activators” (DOW GLOBAL TECHNOLOGIES LLC, priority 2018, dated 2022)
